Active and inactive are the calls of the source. The calls are words filed in the database; no cut-off is given here.

The test system of the experiment is Plasmodium falciparum. The experiment can be described thus: Antimalarial activity against Plasmodium falciparum 3D7 at 10 uM. It is filed as functional, organism-based.
Turning to `COC(=O)[C@@H]1COC(=O)[C@H]2[C@@H]1[C@@H](O)C[C@@]2(C)OC(C)=O`, the result was inactive.

For `COC(=O)[C@@H](CO)[C@H]1[C@H](O)C[C@](C)(O)[C@H]1C(=O)O`, the outcome was inactive.

Turning to `COC(=O)C1=CO[C@@H](O[C@@H]2O[C@H](CO)[C@@H](O)[C@H](O)[C@H]2O)[C@H]2[C@@H]1[C@H](O)C[C@]2(C)OC(C)=O`, the result was inactive.

On to `COC(=O)[C@@H](CO)[C@H]1[C@H](O)C[C@](C)(OC(C)=O)[C@H]1C(=O)O`, for which the result was inactive.

(Values after ChEMBL document CHEMBL4665772, “Secoiridoids and Iridoids from Morinda asteroscepa” (J Nat Prod, 2020).)
